Experimental data as given in PMC12543283, “TastepepAI: An artificial intelligence platform for taste peptide de novo design” (PLOS Computational Biology, 2025).
Ends that are not written are not given here.

Legend:
[1] = Electronic tongue analysis (Taste-Sensing System SA 402B); set-up: unit not given here; settings: reference solution 30 mM KCl + 0.3 mM tartaric acid as baseline, first measurement excluded; for Umami: sensor AAE; for Umami / Bitter / Sweet: detection threshold 0, room temperature; for Umami / Bitter / Sour / Salty: four replicates; for Sour: detection threshold -13, room temperature; for Salty: detection threshold -6, room temperature; for Sweet: measured five times
In short: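 Room-temperature electronic-tongue readings with five taste probes, calibrated against a reference of 30 mM KCl and 0.3 mM tartaric acid. Samples at 0.1 mg/mL and 1.0 mg/mL were measured four times, sweetness five times, and the first run was dropped. Detection cut-offs were sour −13, salty −6, others 0.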

[2] = tested on: human bronchial epithelial cells (BEAS-2B)
Experimental: (§1) The cytotoxicity of 73 synthetic peptides was evaluated using four human cell lines: human pancreatic ductal epithelial cells (HPNE), human embryonic kidney cells (HEK293T), human umbilical vein endothelial cells (HUVEC), and human bronchial epithelial cells (BEAS-2B). When cell density reached 70% confluence, the complete culture medium was replaced with serum-free maintenance medium, and peptides were added at a final concentration of 100 μM for 36 h. Control groups received only serum-free maintenance medium without peptides. Cell proliferation was assessed using the CCK-8 assay kit (Solarbio, CA1210) according to the manufacturer’s instructions.

[3] = tested on: human embryonic kidney cells (HEK293T)
[4] = tested on: human pancreatic ductal epithelial cells (HPNE)
Experimental: as §1

[5] = tested on: human umbilical vein endothelial cells (HUVEC)

Substance	Umami ([1]; peptide 0.1 mg/mL)	Umami ([1]; peptide 1 mg/mL)	Bitter ([1]; sensor C00, peptide 0.1 mg/mL)	Bitter ([1]; sensor C00, peptide 1 mg/mL)	Sour ([1]; sensor CA0, peptide 0.1 mg/mL)	Sour ([1]; sensor CA0, peptide 1 mg/mL)	Salty ([1]; sensor CT0, peptide 0.1 mg/mL)	Salty ([1]; sensor CT0, peptide 1 mg/mL)	Sweet ([1]; sensor GL1, peptide 0.1 mg/mL)	Sweet ([1]; sensor GL1, peptide 1 mg/mL)	Average cell viability, BEAS-2B [2]	Cell viability, BEAS-2B, Data1 [2]	Cell viability, BEAS-2B, Data2 [2]	Cell viability, BEAS-2B, Data3 [2]	Average cell viability, HEK293T [3]	Cell viability, HEK293T, Data1 [3]	Cell viability, HEK293T, Data2 [3]	Cell viability, HEK293T, Data3 [3]	Average cell viability, HPNE [4]	Cell viability, HPNE, Data1 [4]	other results
LQPDAGK [TaPep6]	1.99	-5.07	7.90	2.72	-4.43	10.67	-19.24	12.20	8.22	-5.48	102.76	91.82	107.88	108.57	98.83	101.83	97.29	97.38	97.97	95.64	Cell viability, HPNE, Data2 [4]: 99.55; Cell viability, HPNE, Data3 [4]: 98.73; Average cell viability, HUVEC [5]: 102.10; Cell viability, HUVEC, Data1 [5]: 91.96; Cell viability, HUVEC, Data2 [5]: 115.19; Cell viability, HUVEC, Data3 [5]: 99.15
EPKVLV [TaPep54]	3.06	-3.47	7.63	2.50	-7.11	8.51	-20.20	10.59	9.28	-6.29	102.43	95.01	108.18	104.09	102.24	103.15	102.49	101.07	100.23	115.91	Cell viability, HPNE, Data2 [4]: 95.44; Cell viability, HPNE, Data3 [4]: 89.35; Average cell viability, HUVEC [5]: 110.64; Cell viability, HUVEC, Data1 [5]: 113.84; Cell viability, HUVEC, Data2 [5]: 114.72; Cell viability, HUVEC, Data3 [5]: 103.38
EQPLQA [TaPep21]	0.99	-5.14	7.83	3.66	-1.59	12.04	-19.46	7.62	5.53	-10.15	98.84	92.62	108.57	95.31	97.76	94.35	95.58	103.34	98.70	92.25	Cell viability, HPNE, Data2 [4]: 87.35; Cell viability, HPNE, Data3 [4]: 116.51; Average cell viability, HUVEC [5]: 102.16; Cell viability, HUVEC, Data1 [5]: 96.59; Cell viability, HUVEC, Data2 [5]: 98.43; Cell viability, HUVEC, Data3 [5]: 111.44
TAEQVA [TaPep33]	1.93	-0.93	7.77	3.28	-4.09	10.86	-19.69	10.92	8.49	-5.32	98.57	90.33	99.90	105.48	102.24	97.67	105.05	104.01	106.02	118.30	Cell viability, HPNE, Data2 [4]: 86.46; Cell viability, HPNE, Data3 [4]: 113.31; Average cell viability, HUVEC [5]: 104.47; Cell viability, HUVEC, Data1 [5]: 106.25; Cell viability, HUVEC, Data2 [5]: 114.32; Cell viability, HUVEC, Data3 [5]: 92.84
